How the values were obtained:
Assay type in all cases: biochemical
[1] = target: T1, Human Tyk2 kinase domain (Homo sapiens, UniProt P29597); experiment: Tyk2 Inhibition Assay (Omnia kinase fluorescence peptide substrate); details: averaged IC50 ranges; 10 μM (Km app) or 1 mM ATP, 2 nM Tyk2
T1 construct: comprising amino acids 886 to 1187; His10 (10 histidine residues) (C, cleaved yes); made in house
T1 sequence (P29597 886-1187): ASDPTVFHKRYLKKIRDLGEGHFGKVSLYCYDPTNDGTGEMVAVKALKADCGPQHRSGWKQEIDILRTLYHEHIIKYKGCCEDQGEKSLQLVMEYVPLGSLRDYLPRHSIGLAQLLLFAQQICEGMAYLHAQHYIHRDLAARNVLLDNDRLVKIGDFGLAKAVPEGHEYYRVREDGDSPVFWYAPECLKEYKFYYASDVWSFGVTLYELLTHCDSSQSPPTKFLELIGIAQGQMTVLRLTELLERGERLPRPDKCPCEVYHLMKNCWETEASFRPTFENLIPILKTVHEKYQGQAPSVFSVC
Summary of the method: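 Phosphorylation of 8 μM Omnia Y12 peptide followed kinetically by Sox fluorescence, ex 360/em 485 nm, every 50 s for 45 min. Enzyme: 2 nM Tyk2 kinase domain (aa 886–1187, His tag removed); ATP at 10 μM (Km app) or 1 mM; buffer HEPES pH 7.4 with MgCl2, Triton X-100, DTT. 10-point curves up to 10 μM, IC50 from 4-parameter logistic fit.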

[2] = target: T2, JAK1 (Homo sapiens, UniProt P23458); experiment: JAK1 Inhibition Assay (Omnia kinase fluorescence peptide substrate); details: averaged IC50 ranges; 40 μM (Km app) or 1 mM ATP, 15 nM JAK1
T2 construct: purchased Invitrogen Corporation, Carlsbad, Calif; IVGN PV4775
T2 sequence (P23458 whole entry): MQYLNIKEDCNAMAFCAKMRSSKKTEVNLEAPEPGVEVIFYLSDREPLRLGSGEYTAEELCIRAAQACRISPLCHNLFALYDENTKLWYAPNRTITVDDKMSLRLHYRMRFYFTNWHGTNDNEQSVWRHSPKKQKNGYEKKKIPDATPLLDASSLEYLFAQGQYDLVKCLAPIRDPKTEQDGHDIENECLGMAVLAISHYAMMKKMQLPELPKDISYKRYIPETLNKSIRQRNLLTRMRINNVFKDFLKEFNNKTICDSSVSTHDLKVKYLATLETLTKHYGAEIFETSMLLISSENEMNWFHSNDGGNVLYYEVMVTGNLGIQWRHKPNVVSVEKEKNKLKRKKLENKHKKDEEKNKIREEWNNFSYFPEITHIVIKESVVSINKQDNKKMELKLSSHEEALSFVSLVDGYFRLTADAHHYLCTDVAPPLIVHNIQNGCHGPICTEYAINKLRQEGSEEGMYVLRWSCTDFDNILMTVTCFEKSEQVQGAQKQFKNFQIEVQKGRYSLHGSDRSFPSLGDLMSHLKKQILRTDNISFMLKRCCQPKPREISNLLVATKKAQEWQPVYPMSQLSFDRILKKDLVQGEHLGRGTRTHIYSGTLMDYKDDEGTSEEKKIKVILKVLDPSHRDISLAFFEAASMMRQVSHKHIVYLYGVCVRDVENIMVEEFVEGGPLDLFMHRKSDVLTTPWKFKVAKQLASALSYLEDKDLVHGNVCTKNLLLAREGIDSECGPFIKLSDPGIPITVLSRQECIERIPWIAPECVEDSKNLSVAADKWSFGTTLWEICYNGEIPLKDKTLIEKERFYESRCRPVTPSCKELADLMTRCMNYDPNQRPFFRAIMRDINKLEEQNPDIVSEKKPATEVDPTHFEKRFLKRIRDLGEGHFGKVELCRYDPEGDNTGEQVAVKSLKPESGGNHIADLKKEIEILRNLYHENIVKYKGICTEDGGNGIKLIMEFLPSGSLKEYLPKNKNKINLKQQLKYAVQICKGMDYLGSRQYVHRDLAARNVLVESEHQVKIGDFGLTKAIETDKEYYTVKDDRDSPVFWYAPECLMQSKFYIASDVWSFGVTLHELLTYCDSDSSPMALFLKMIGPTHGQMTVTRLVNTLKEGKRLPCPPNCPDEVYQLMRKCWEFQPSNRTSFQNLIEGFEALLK
Summary of the method: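 15 nM JAK1, 8 μM Omnia Y12 peptide, 40 μM (Km app) or 1 mM ATP; 25 mM HEPES pH 7.4, 10 mM MgCl2, 2% DMSO. Fluorescence (ex 360/em 485 nm) read every 50 s over 45 min. IC50 by 4-parameter fit of percent of control, top dose 10 μM.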

[3] = target: T3, JAK2 (Homo sapiens, UniProt O60674); experiment: JAK2 Inhibition Assay (Omnia kinase fluorescence peptide substrate); details: averaged IC50 ranges; 25 μM (Km app) or 1 mM ATP, 5 nM JAK2
T3 construct: purchased Invitrogen Corporation, Carlsbad, Calif; IVGN PV4288
T3 sequence (O60674 whole entry): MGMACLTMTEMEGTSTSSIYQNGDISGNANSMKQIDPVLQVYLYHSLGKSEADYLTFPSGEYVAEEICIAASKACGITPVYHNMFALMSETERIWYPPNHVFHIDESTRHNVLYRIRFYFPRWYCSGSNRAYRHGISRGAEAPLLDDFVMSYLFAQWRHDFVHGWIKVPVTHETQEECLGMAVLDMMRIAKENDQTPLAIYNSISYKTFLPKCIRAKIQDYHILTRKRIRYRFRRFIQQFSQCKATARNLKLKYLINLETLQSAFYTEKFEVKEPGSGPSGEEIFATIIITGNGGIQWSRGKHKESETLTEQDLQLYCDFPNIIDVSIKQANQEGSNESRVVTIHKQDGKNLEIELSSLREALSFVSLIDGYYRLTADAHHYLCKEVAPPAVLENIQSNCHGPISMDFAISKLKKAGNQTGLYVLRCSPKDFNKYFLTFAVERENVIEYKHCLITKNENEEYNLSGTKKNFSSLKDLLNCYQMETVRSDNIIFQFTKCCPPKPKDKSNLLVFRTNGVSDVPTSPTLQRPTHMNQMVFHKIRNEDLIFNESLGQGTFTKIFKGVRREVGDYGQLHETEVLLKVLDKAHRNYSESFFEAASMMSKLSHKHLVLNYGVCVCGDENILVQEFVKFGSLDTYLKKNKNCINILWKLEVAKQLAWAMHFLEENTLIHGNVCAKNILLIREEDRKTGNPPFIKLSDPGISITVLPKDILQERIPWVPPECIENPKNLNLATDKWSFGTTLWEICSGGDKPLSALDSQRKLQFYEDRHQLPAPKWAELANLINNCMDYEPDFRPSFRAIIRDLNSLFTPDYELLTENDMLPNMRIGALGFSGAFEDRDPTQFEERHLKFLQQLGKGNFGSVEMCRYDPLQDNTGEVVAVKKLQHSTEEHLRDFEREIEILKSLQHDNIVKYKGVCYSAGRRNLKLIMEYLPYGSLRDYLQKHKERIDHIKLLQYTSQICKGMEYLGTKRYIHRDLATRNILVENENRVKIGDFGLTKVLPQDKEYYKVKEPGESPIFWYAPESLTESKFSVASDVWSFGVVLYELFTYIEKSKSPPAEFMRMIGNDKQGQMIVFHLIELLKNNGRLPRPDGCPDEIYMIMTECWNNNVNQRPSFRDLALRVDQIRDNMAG

[4] = target: T4, JAK3 (Homo sapiens, UniProt P52333); experiment: JAK3 Inhibition Assay (Omnia kinase fluorescence peptide substrate); details: averaged IC50 ranges; 10 μM (Km app) or 1 mM ATP, 2.5 nM JAK3
T4 construct: purchased Invitrogen Corporation, Carlsbad, Calif; IVGN PV4080
T4 sequence (P52333 1-1124): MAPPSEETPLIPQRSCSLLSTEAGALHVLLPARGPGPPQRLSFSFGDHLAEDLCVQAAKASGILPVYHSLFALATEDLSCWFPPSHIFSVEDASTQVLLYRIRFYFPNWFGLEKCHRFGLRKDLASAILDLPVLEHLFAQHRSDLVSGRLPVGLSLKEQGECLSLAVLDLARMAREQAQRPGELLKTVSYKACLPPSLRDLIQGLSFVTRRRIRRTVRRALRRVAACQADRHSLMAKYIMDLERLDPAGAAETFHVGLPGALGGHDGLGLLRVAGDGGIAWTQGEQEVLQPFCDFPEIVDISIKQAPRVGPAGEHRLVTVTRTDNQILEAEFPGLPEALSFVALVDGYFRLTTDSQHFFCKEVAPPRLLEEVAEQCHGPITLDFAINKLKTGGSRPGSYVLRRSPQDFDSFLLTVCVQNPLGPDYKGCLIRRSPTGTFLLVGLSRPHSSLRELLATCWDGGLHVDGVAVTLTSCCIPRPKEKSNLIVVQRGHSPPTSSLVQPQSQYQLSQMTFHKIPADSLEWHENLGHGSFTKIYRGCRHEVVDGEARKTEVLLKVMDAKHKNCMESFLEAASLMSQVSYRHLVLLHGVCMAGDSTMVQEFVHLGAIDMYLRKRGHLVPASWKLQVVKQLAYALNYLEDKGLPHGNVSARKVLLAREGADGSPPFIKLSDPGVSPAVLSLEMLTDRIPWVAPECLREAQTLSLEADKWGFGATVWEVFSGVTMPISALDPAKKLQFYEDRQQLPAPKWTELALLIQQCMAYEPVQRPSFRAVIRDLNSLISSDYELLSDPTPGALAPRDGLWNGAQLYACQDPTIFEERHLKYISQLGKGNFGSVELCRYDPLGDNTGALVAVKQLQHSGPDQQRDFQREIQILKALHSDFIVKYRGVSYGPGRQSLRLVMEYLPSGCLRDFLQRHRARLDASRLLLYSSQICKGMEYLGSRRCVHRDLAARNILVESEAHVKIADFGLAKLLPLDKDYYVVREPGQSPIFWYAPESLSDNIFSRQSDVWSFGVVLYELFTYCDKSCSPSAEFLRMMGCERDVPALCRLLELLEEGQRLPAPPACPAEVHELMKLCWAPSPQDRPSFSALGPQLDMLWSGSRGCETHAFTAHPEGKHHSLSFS
Summary of the method: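 IC50 is the concentration giving 50 percent of control on a 4-parameter logistic fit of 10-point, 3-fold dilutions from a 10 μM top dose, at 2% final DMSO. Kinetic Sox fluorescence (360/485 nm) was monitored every 50 s for 45 min. Mix: JAK3 2.5 nM, Omnia Y7 peptide 10 μM, ATP 10 μM (Km app) or 1 mM, in HEPES pH 7.4 buffer with MgCl2, Triton X-100 and DTT.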

[5] = test system: Tyk2, JAK1, JAK2 and JAK3; experiment: in vitro assays (Examples A, B, C and D) taken together; details: Reference Examples; statement in words
From the text: The assays described in Examples A, B, C and D for the determination of Tyk2, JAK1, JAK2 and JAK3 kinase activity, respectively, utilized the Omnia® Kinase fluorescence peptide substrate-based technology (Invitrogen). The specific components of the assay mixture are described in Examples A, B, C and D. In these assays, Mg^2+ is chelated upon phosphorylation of the Omnia peptide by the kinase to form a bridge between the chelation-enhanced fluorophore Sox and the phosphate, resulting in an increase in fluorescence emission at 485 nm when excited at […]. The reactions were therefore read at excitation 360 nm and emission was measured at 485 nm every 50 seconds for 45 minutes using a PerkinElmer EnVision Multilabel Plate Reader.
The final buffer conditions for Tyk2, JAK1, JAK2, and JAK3 assays were as follows: 25 mM HEPES, pH 7.4, 10 mM MgCl2, 0.01% Triton X-100 and 1 mM DTT.
Compounds were prepared at 50× the final concentration in DMSO by conducting 3-fold serial dilutions from a 500-μM intermediate dilution to give a 10-point dosing curve having a high dose of 10 μM. Two-μL aliquots of these were transferred to a fresh plate for a ten-fold intermediate dilution with assay buffer. Five-μL aliquots of the diluted compounds were then transferred to 20-μL of assay mixtures described in Examples A, B, C and D for a final concentration of DMSO of 2%. A standard or reference compound was typically included on each assay plate to validate that plate. For each plate, percent of control (POC) values were calculated for each well according to the following equation: […]
Compounds of Formula I were screened for their ability to inhibit Tyk2 using the general enzyme inhibition assay method, in which the assay mixture contained 10 μM (Km app) or 1 mM ATP, 8 μM Omnia® Y12 peptide (Catalog #IVGN KPZ3121C; Invitrogen Corporation, Carlsbad, Calif.) and 2 nM Tyk2 in a total volume of 20 μL. Human Tyk2 kinase domain, comprising amino acids 886 to 1187 with 10 additional histidine residues (histidine tag) on the carboxy terminus, was expressed and purified from bacculovirus in-house at Array BioPharma Inc. (Boulder, Colo.). The histidine tag was cleaved after purification using standard conditions.
Compounds of Formula I were screened for their ability to inhibit JAK1 using the general enzyme inhibition assay method, in which the assay mixture contained 40 μM (Km app) or 1 mM ATP, 8 μM Omnia® Y12 peptide (Catalog #IVGN KPZ3121C; Invitrogen Corporation, Carlsbad, Calif.) and 15 nM JAK1 in a total volume of 20 μL. JAK1 was purchased from Invitrogen Corporation, Carlsbad, Calif. (catalog #IVGN PV4775).
(§1) Compounds of Formula I were screened for their ability to inhibit JAK2 using the general enzyme inhibition assay method, in which the assay mixture contained 25 μM (Km app) or 1 mM ATP, 10 μM Omnia® Y7 peptide (Catalog #IVGN KNZ3071C, Invitrogen Corporation, Carlsbad, Calif.) and 5 nM JAK2 in a total volume of 20 μL. JAK2 was purchased from Invitrogen Corporation, Carlsbad, Calif. (catalog #IVGN PV4288).
as §1, with “JAK3” for “JAK2”, “10” for “25”, “2.5” for “5”, “PV4080).” for “PV4288).”

Row | IC50 [1] [nM] | IC50 [2] [nM] | IC50 [3] [nM] | IC50 [4] [nM] | Structure (SMILES) | activity in the in vitro assays [5]
1 | > 1000 | > 1000 | > 1000 | > 1000 | CN(C)C(=O)N1CC(CCF)(n2cc(-c3nc(-c4cnn(C)c4)cc4nccn34)cn2)C1 [Example 93, 3-(2-fluoroethyl)-N,N-dimethyl-3-(4-(7-(1-methyl-1H-pyrazol-4-yl)imidazo[1,2-c]pyrimidin-5-yl)-1H-pyrazol-1-yl)azetidine-1-carboxamide] | weakly active
2 | > 1000 | > 1000 | > 1000 | > 1000 | Cn1cc(-c2cc3nccn3c(-c3cnn(C4(CCF)CN(C(=O)C5CC5)C4)c3)n2)cn1 [Example 97, cyclopropyl(3-(2-fluoroethyl)-3-(4-(7-(1-methyl-1H-pyrazol-4-yl)imidazo[1,2-c]pyrimidin-5-yl)-1H-pyrazol-1-yl)azetidin-1-yl)methanone] | weakly active
3 | > 1000 | > 1000 | > 1000 | > 1000 | COCCC1(n2cc(-c3nc(-c4cnn(C)c4)cc4nccn34)cn2)CN(C(=O)N(C)C)C1 [Example 99, 3-(2-methoxyethyl)-N,N-dimethyl-3-(4-(7-(1-methyl-1H-pyrazol-4-yl)imidazo[1,2-c]pyrimidin-5-yl)-1H-pyrazol-1-yl)azetidine-1-carboxamide] | weakly active

From patent publication US20140228349A1, “5,7-SUBSTITUTED-IMIDAZO[1,2-C]PYRIMIDINES” (Array BioPharma Inc., priority 2011, published 2014)
